# Results from PubChem BioAssay AID270 (DTP/NCI, 2004).
# Values joined by “and” are separate entries in the source; they are usually repeats but may differ in a detail not shown here. Equal values may be shown once. Results filed as inconclusive are left out.
# Test system: BDF1 mice, s.c. Lewis lung carcinoma, T/C %
# Test: NCI In Vivo Anticancer Drug Screen. Data for tumor model Lewis Lung Carcinoma (subcutaneous) in B6D2F1 (BDF1) mice
# Method in brief: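 Tumor-bearing mice were treated with test compound, and either survival or tumor size was recorded. Values are the treated-group measurement divided by that of the vehicle-treated control group.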
# [1] = endpoint: median survival time, dose: 10.0 mg/kg/injection, schedule: Q01DX001 (ip), vehicle: Klucel (hydroxypropylcellulose) (HPC), higher = longer survival
# [2] = endpoint: median survival time, dose: 20.0 mg/kg/injection, schedule: Q01DX001 (ip), vehicle: Klucel (hydroxypropylcellulose) (HPC), higher = longer survival
# [3] = endpoint: median survival time, dose: 1.56 mg/kg/injection, schedule: Q01DX009 (ip), vehicle: saline, higher = longer survival
structure (smiles),measurement,setting,value
Cc1cc(CCl)c(C)c(Br)c1C,T/C,"endpoint: median survival time, dose: 1.5 mg/kg/injection, schedule: Q01DX009 (ip), vehicle: Klucel (hydroxypropylcellulose) (HPC), higher = longer survival",108 % of control
same,T/C,"endpoint: median survival time, dose: 3.0 mg/kg/injection, schedule: Q01DX009 (ip), vehicle: Klucel (hydroxypropylcellulose) (HPC), higher = longer survival",120 % of control
same,T/C,"endpoint: median survival time, dose: 6.0 mg/kg/injection, schedule: Q01DX009 (ip), vehicle: Klucel (hydroxypropylcellulose) (HPC), higher = longer survival",95 % of control
O=CC(NC(=O)N(CCCl)N=O)C(O)C(O)C(O)CO (stereo not drawn),T/C,"endpoint: median survival time, dose: 1.25 mg/kg/injection, schedule: Q01DX009 (ip), vehicle: saline, higher = longer survival",121 % of control
same,T/C,"endpoint: median survival time, dose: 2.5 mg/kg/injection, schedule: Q01DX009 (ip), vehicle: saline, higher = longer survival",112 % of control
same,T/C,"endpoint: median survival time, dose: 3.3 mg/kg/injection, schedule: Q01DX009 (ip), vehicle: saline, higher = longer survival",105 % of control
same,T/C,"endpoint: median survival time, dose: 4.9 mg/kg/injection, schedule: Q01DX009 (ip), vehicle: saline, higher = longer survival",102 % of control
same,T/C,"endpoint: median survival time, dose: 5.0 mg/kg/injection, schedule: Q01DX009 (ip), vehicle: saline, higher = longer survival",118 % of control
same,T/C,"endpoint: median survival time, dose: 7.4 mg/kg/injection, schedule: Q01DX009 (ip), vehicle: saline, higher = longer survival",96 % of control
same,T/C,[1],88 % of control and 109 % of control
same,T/C,"endpoint: median survival time, dose: 10.0 mg/kg/injection, schedule: Q01DX009 (ip), vehicle: saline, higher = longer survival",111 % of control
same,T/C,"endpoint: median survival time, dose: 12.0 mg/kg/injection, schedule: Q04DX003 (ip), vehicle: saline, higher = longer survival",93 % of control
same,T/C,"endpoint: median survival time, dose: 16.0 mg/kg/injection, schedule: Q01DX001 (ip), vehicle: saline, higher = longer survival",110 % of control
same,T/C,"endpoint: median survival time, dose: 18.0 mg/kg/injection, schedule: Q04DX003 (ip), vehicle: saline, higher = longer survival",108 % of control
same,T/C,[2],95 % of control
same,T/C,"endpoint: median survival time, dose: 24.0 mg/kg/injection, schedule: Q01DX001 (ip), vehicle: saline, higher = longer survival",96 % of control
same,T/C,"endpoint: median survival time, dose: 36.0 mg/kg/injection, schedule: Q01DX001 (ip), vehicle: saline, higher = longer survival",98 % of control
O=NN(CCCl)C(=O)NCCCl,T/C,"endpoint: mean tumor weight, dose: 1.57 mg/kg/injection, schedule: Q01DX011 (ip), vehicle: saline, higher = larger tumour",78 % of control
same,T/C,"endpoint: mean tumor weight, dose: 3.13 mg/kg/injection, schedule: Q01DX011 (ip), vehicle: saline, higher = larger tumour",56 % of control
same,T/C,"endpoint: mean tumor weight, dose: 4.0 mg/kg/injection, schedule: Q01DX011 (ip), vehicle: other, higher = larger tumour",41 % of control
same,T/C,"endpoint: mean tumor weight, dose: 6.25 mg/kg/injection, schedule: Q01DX011 (ip), vehicle: saline, higher = larger tumour",4 % of control and 14 % of control
same,T/C,"endpoint: mean tumor weight, dose: 12.5 mg/kg/injection, schedule: Q01DX011 (ip), vehicle: saline, higher = larger tumour",3 % of control
same,T/C,"endpoint: median survival time, dose: 0.5 mg/kg/injection, schedule: Q08HX024 (ip), vehicle: Klucel (hydroxypropylcellulose) (HPC), higher = longer survival",90 % of control
same,T/C,"endpoint: median survival time, dose: 1.0 mg/kg/injection, schedule: Q08HX024 (ip), vehicle: Klucel (hydroxypropylcellulose) (HPC), higher = longer survival",91 % of control
same,T/C,"endpoint: median survival time, dose: 5.0 mg/kg/injection, schedule: Q01DX001 (ip), vehicle: Klucel (hydroxypropylcellulose) (HPC), higher = longer survival",108 % of control
same,T/C,"endpoint: median survival time, dose: 5.0 mg/kg/injection, schedule: Q01DX001 (ip), vehicle: saline + alcohol, higher = longer survival",100 % of control and 104 % of control
same,T/C,"endpoint: median survival time, dose: 5.0 mg/kg/injection, schedule: Q01DX001 (ip), vehicle: saline with Tween-80, higher = longer survival",113 % of control
same,T/C,"endpoint: median survival time, dose: 6.7 mg/kg/injection, schedule: Q01DX005 (ip), vehicle: saline + alcohol, higher = longer survival",113 % of control
same,T/C,[1],120 % of control
same,T/C,"endpoint: median survival time, dose: 10.0 mg/kg/injection, schedule: Q01DX001 (ip), vehicle: saline + alcohol, higher = longer survival",96 % of control and 116 % of control
same,T/C,"endpoint: median survival time, dose: 10.0 mg/kg/injection, schedule: Q01DX001 (ip), vehicle: saline with Tween-80, higher = longer survival",99 % of control and 102 % of control
same,T/C,"endpoint: median survival time, dose: 13.0 mg/kg/injection, schedule: Q01DX001 (ip), vehicle: saline + alcohol, higher = longer survival",100 % of control
same,T/C,"endpoint: median survival time, dose: 13.5 mg/kg/injection, schedule: Q01DX001 (ip), vehicle: Klucel (hydroxypropylcellulose) (HPC), higher = longer survival",160 % of control
same,T/C,"endpoint: median survival time, dose: 15.0 mg/kg/injection, schedule: Q01DX005 (ip), vehicle: saline + alcohol, higher = longer survival",71 % of control and 85 % of control
same,T/C,[2],117 % of control
same,T/C,"endpoint: median survival time, dose: 20.0 mg/kg/injection, schedule: Q01DX001 (ip), vehicle: saline + alcohol, higher = longer survival",104 % of control and 121 % of control
same,T/C,"endpoint: median survival time, dose: 20.0 mg/kg/injection, schedule: Q01DX001 (ip), vehicle: saline with Tween-80, higher = longer survival",111 % of control and 119 % of control
same,T/C,"endpoint: median survival time, dose: 26.0 mg/kg/injection, schedule: Q01DX001 (ip), vehicle: saline + alcohol, higher = longer survival",117 % of control
same,T/C,"endpoint: median survival time, dose: 27.0 mg/kg/injection, schedule: Q01DX001 (ip), vehicle: Klucel (hydroxypropylcellulose) (HPC), higher = longer survival",105 % of control
same,T/C,"endpoint: median survival time, dose: 30.0 mg/kg/injection, schedule: Q01DX001 (ip), vehicle: saline + alcohol, higher = longer survival",163 % of control
same,T/C,"endpoint: median survival time, dose: 39.0 mg/kg/injection, schedule: Q01DX001 (ip), vehicle: saline + alcohol, higher = longer survival",100 % of control
same,T/C,"endpoint: median survival time, dose: 40.0 mg/kg/injection, schedule: Q01DX001 (ip), vehicle: Klucel (hydroxypropylcellulose) (HPC), higher = longer survival",156 % of control
same,T/C,"endpoint: median survival time, dose: 40.0 mg/kg/injection, schedule: Q01DX001 (ip), vehicle: saline with Tween-80, higher = longer survival",121 % of control
same,T/C,"endpoint: median survival time, dose: 80.0 mg/kg/injection, schedule: Q01DX001 (ip), vehicle: Klucel (hydroxypropylcellulose) (HPC), higher = longer survival",217 % of control
same,T/C,"endpoint: median survival time, dose: 80.0 mg/kg/injection, schedule: Q01DX001 (ip), vehicle: saline + alcohol, higher = longer survival",95 % of control
same,T/C,"endpoint: median tumor weight (est.), dose: 14.0 mg/kg/injection, schedule: Q01DX001 (ip), vehicle: saline + alcohol, higher = larger tumour",70 % of control
same,T/C,"endpoint: median tumor weight (est.), dose: 27.0 mg/kg/injection, schedule: Q01DX001 (ip), vehicle: saline + alcohol, higher = larger tumour",65 % of control
same,T/C,"endpoint: median tumor weight (est.), dose: 41.0 mg/kg/injection, schedule: Q01DX001 (ip), vehicle: saline + alcohol, higher = larger tumour",34 % of control
O=C(CCBr)N1CCN(C(=O)CCBr)CC1,T/C,"endpoint: median survival time, dose: 2.5 mg/kg/injection, schedule: Q01DX009 (ip), vehicle: saline with Tween-80, higher = longer survival",105 % of control
same,T/C,"endpoint: median survival time, dose: 5.0 mg/kg/injection, schedule: Q01DX009 (ip), vehicle: saline with Tween-80, higher = longer survival",105 % of control
same,T/C,"endpoint: median survival time, dose: 10.0 mg/kg/injection, schedule: Q01DX009 (ip), vehicle: saline with Tween-80, higher = longer survival",109 % of control
same,T/C,"endpoint: median survival time, dose: 20.0 mg/kg/injection, schedule: Q01DX009 (ip), vehicle: saline with Tween-80, higher = longer survival",109 % of control
same,T/C,"endpoint: median survival time, dose: 40.0 mg/kg/injection, schedule: Q01DX009 (ip), vehicle: saline with Tween-80, higher = longer survival",106 % of control
same,T/C,"endpoint: median survival time, dose: 80.0 mg/kg/injection, schedule: Q01DX009 (ip), vehicle: saline with Tween-80, higher = longer survival",102 % of control
COc1cc(C=Nc2ccc(-c3nc(Cc4ccccc4)sc3C)cc2)ccc1N(CCCl)CCCl,T/C,"endpoint: median survival time, dose: 12.5 mg/kg/injection, schedule: Q01DX009 (ip), vehicle: Klucel (hydroxypropylcellulose) (HPC), higher = longer survival",90 % of control
same,T/C,"endpoint: median survival time, dose: 25.0 mg/kg/injection, schedule: Q01DX009 (ip), vehicle: Klucel (hydroxypropylcellulose) (HPC), higher = longer survival",110 % of control
[I][Hg][CH2]C1COCC([CH2][Hg][I])O1.[I][Hg][CH2]C1COCC([CH2][Hg][I])O1 (stereo not drawn),T/C,"endpoint: mean tumor weight, dose: 19.0 mg/kg/injection, schedule: Q01DX011 (ip), vehicle: other, higher = larger tumour",80 % of control
same,T/C,"endpoint: mean tumor weight, dose: 29.0 mg/kg/injection, schedule: Q01DX011 (ip), vehicle: other, higher = larger tumour",57 % of control
same,T/C,"endpoint: mean tumor weight, dose: 66.0 mg/kg/injection, schedule: Q01DX011 (ip), vehicle: other, higher = larger tumour",36 % of control
Cc1nc(N)nc(N)c1-c1ccc(Cl)c(Cl)c1,T/C,"endpoint: mean tumor weight, dose: 0.9 mg/kg/injection, schedule: Q01DX011 (ip), vehicle: carboxymethylcellulose (CMC), higher = larger tumour",80 % of control
same,T/C,"endpoint: mean tumor weight, dose: 1.3 mg/kg/injection, schedule: Q01DX011 (ip), vehicle: carboxymethylcellulose (CMC), higher = larger tumour",89 % of control
same,T/C,"endpoint: mean tumor weight, dose: 2.0 mg/kg/injection, schedule: Q01DX011 (ip), vehicle: carboxymethylcellulose (CMC), higher = larger tumour",92 % of control
same,T/C,"endpoint: mean tumor weight, dose: 2.0 mg/kg/injection, schedule: Q01DX011 (ip), vehicle: other, higher = larger tumour",22 % of control
same,T/C,"endpoint: mean tumor weight, dose: 3.0 mg/kg/injection, schedule: Q01DX011 (ip), vehicle: carboxymethylcellulose (CMC), higher = larger tumour",45 % of control
same,T/C,"endpoint: mean tumor weight, dose: 6.0 mg/kg/injection, schedule: Q01DX011 (ip), vehicle: other, higher = larger tumour",4 % of control
same,T/C,"endpoint: median survival time, dose: 0.39 mg/kg/injection, schedule: Q01DX009 (ip), vehicle: saline, higher = longer survival",96 % of control
same,T/C,"endpoint: median survival time, dose: 0.78 mg/kg/injection, schedule: Q01DX009 (ip), vehicle: saline, higher = longer survival",108 % of control
same,T/C,"endpoint: median survival time, dose: 1.0 mg/kg/injection, schedule: Q02DX009 (ip), vehicle: Klucel (hydroxypropylcellulose) (HPC), higher = longer survival",105 % of control
same,T/C,[3],123 % of control
same,T/C,"endpoint: median survival time, dose: 2.0 mg/kg/injection, schedule: Q02DX009 (ip), vehicle: Klucel (hydroxypropylcellulose) (HPC), higher = longer survival",108 % of control
same,T/C,"endpoint: median survival time, dose: 3.13 mg/kg/injection, schedule: Q01DX009 (ip), vehicle: saline, higher = longer survival",112 % of control
[Cl][Ni+2][Cl].[NH-]CCN1CC1,T/C,[3],103 % of control and 115 % of control
same,T/C,"endpoint: median survival time, dose: 12.5 mg/kg/injection, schedule: Q01DX009 (ip), vehicle: saline, higher = longer survival",100 % of control
COC(C(=O)C(O)C(C)O)C1Cc2cc3cc(OC4CC(OC(C)=O)C(OC5CC(O)C(OC)C(C)O5)C(C)O4)cc(O)c3c(O)c2C(=O)C1OC1CC(OC2CC(OC3CC(C)(O)C(OC(=O)C(C)C)C(C)O3)C(O)C(C)O2)C(O)C(C)O1 (stereo not drawn),T/C,"endpoint: median survival time, dose: 0.5 mg/kg/injection, schedule: Q01DX009 (ip), vehicle: saline with Tween-80, higher = longer survival",97 % of control
same,T/C,"endpoint: median survival time, dose: 2.0 mg/kg/injection, schedule: Q01DX009 (ip), vehicle: saline with Tween-80, higher = longer survival",94 % of control
CC(=O)C1=C(O)C2(C)c3c(O)c(C)c(O)c(C(C)=O)c3OC2(Sc2ccccc2)CC1=O (stereo not drawn),T/C,"endpoint: median survival time, dose: 6.25 mg/kg/injection, schedule: Q01DX009 (ip), vehicle: gum acacia, higher = longer survival",101 % of control
same,T/C,"endpoint: median survival time, dose: 25.0 mg/kg/injection, schedule: Q01DX009 (ip), vehicle: gum acacia, higher = longer survival",101 % of control
same,T/C,"endpoint: median survival time, dose: 50.0 mg/kg/injection, schedule: Q01DX009 (ip), vehicle: gum acacia, higher = longer survival",97 % of control
